Results: PubChem BioAssay AID1671358

Molecular target: Serine/threonine-protein kinase PLK3 (Homo sapiens) (UniProt Q9H4B4)
Assay: inhibition of PLK3 peptide phosphorylation – biochemical, Z'-LYTE FRET, direct format, human, dose response (AID 1671358)
Conditions: Z'-LYTE FRET kinase assay

Sequence of Serine/threonine-protein kinase PLK3 (Homo sapiens) (Q9H4B4 whole entry, looked up): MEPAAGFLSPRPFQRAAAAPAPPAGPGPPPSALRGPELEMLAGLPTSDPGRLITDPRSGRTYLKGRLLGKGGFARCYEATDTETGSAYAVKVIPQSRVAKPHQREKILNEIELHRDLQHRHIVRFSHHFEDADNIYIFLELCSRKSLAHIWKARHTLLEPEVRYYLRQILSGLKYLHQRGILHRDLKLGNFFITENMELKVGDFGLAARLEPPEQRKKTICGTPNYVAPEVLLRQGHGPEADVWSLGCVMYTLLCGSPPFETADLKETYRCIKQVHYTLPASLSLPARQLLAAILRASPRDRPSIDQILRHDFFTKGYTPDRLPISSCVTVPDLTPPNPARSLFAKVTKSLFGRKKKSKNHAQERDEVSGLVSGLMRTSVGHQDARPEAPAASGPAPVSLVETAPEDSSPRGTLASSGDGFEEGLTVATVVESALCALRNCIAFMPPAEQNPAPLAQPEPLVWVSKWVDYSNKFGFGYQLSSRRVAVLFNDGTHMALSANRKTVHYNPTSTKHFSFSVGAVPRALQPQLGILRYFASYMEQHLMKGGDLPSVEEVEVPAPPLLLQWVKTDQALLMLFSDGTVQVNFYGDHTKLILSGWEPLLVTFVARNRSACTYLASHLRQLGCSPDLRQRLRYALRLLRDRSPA

IC50: 1.85 µM
SMILES: Brc1c(Br)c(Br)c2n[nH]nc2c1Br
